From paper PMC7894522, “Structure Based Design of Bicyclic Peptide Inhibitors of RbAp48” (Angewandte Chemie (International Ed. in English), 2020) come the findings set out here.

The target in the assay is RbAp48 (Homo sapiens, UniProt Q09028). In words: Competitive fluorescence polarization (FP) assay using complex of peptide 1 and RbAp48. It counts as binding. Details: Full length RbAp48 was cloned; His tag followed by 3C cleavage site (N, cleaved yes); made in house; host or cells: Sf9 insect cells. The conditions noted are these: for IC50: competitive FP, RbAp48 15 nM, read-out: IC50; for FP activity in words: competitive FP assay. How it is done:
The binding affinity of our library of synthetic cyclic peptides was evaluated by a competitive fluorescence polarization (FP) assay using a complex formed by peptide 1 and RbAp48. To reduce the length of the peptide it was truncated to the amino acids which seemed most critical according to the crystal structure (residues 676–689, pdb:4pbz). […] We chose to use a cyclization approach to regain affinity, that is, not to induce more interactions but through minimizing the entropic penalty upon binding by reducing the flexibility of the peptide. To this end two amino acids were chosen which are facing one another in the structure (see Figure 1 B/D/E). Two peptides were designed where glutamic acid was used in position 676 (4) or position 680 (5) and lysine in position 688 for both peptides (see Table 1). The macrocycles were formed by connecting the side chains via an amide bond (see Figure 1 D/E). Peptide synthesis was performed on Rink‐amide resin using the Fmoc‐strategy incorporating Fmoc‐L‐Glu(All)‐OH and Fmoc‐L‐Lys(Alloc)‐OH at the sites for cyclization. After completion of the linear synthesis the allyl protecting groups were removed using Pd^0 catalysis and the amide link was formed by using PyBOP. […] Therefore, a range of peptides was synthesized which were cyclized using the same amino acid positions but via a cysteine alkylation strategy (see Figure 1 D/E and Table 1). In this method the residues used for cyclization are replaced with cysteine and benzylic dibromides act as crosslinkers on the unprotected peptides. ^[11] Previous research has shown that such linkers can effectively stabilize cyclic peptides and yield high affinity ligands for protein–protein interaction inhibition. ^[12] Such a linker introduces a xylene group in close vicinity of the hydrophobic patch potentially reconstituting the lost key hydrophobic interactions. To explore a variety of macrocycle conformations we used either ortho‐, meta‐ or para‐substituted dibromides to exchange the linker in both 4 and 5 (see Figure 1 D/E and Table 1). ^[13]
Protein expression and purification
RbAp48 was expressed and purified by the Dortmund Protein Facility. Full length RbAp48 was cloned into a pOPIN vector ligating it to an N-terminal His tag followed by a 3C cleavage site. The protein was expressed from Sf9 cells for 48 h. Cells were harvested and lysed and the protein was purified by loading onto a HisTrap FF crude 5 ml column followed by on-column cleavage using Precission protease. The cleaved protein was then further purified using a HiLoad 26/60 Superdex 200 column.
Fluorescence polarization assay
Fluorescence polarization assays were performed in 384 wells plates in 80 µl volumes. The assay buffer contains 20 mM Tris-HCl, 150 mM NaCl, 0.01% Tween-20 at pH 7.5. The concentration of the fluorescently labelled peptides was 1 nM plates were incubated at room temperature for 30 min before they were read on a Tecan Spark plate reader (λex = 485 nm, λem = 535 nm).
For competitive assays the same conditions were used with a tracer concentration of 1 nM was used and a protein concentration of 15 nM .
(In general: Fluorescence polarisation rises when a labelled molecule tumbles more slowly, as on binding a larger partner.)

[1] abbreviates: Supplemental Table 2, tracer 1 nM, pH 7.5, 30 min room temperature.
Where [2] appears, read: Table 1, tracer peptide 1 1 nM, 20 mM Tris-HCl, 150 mM NaCl, 0.01% Tween-20, pH 7.5, 30 min room temperature, lower limit set by 15 nM protein.

Read-outs that look alike come from different tables or passages of the source. Starred links: 1 amine or outer side, 2 acyl side, 3 side chain; linkers in the order of their positions; H or OH if unused. Positions of bridges follow the written chain, without caps; N, C: chain ends. Residues, ends and D or L forms follow the SMILES beside them. Pyridine(2,6-diCH2) = c1cc(C[*:1])nc(C[*:2])c1; TBMB = c1c(C[*:1])cc(C[*:3])cc1C[*:2]; mXylylene = c1cc(C[*:1])cc(C[*:2])c1; pXylylene = c1cc(C[*:2])ccc1C[*:1]; X4 = N#Cc1cc(C[*:1])cc(C[*:2])c1; X5 = Brc1cc(C[*:1])cc(C[*:2])c1

RbAp48, sequence (Q09028 whole entry, the tested form may be a part): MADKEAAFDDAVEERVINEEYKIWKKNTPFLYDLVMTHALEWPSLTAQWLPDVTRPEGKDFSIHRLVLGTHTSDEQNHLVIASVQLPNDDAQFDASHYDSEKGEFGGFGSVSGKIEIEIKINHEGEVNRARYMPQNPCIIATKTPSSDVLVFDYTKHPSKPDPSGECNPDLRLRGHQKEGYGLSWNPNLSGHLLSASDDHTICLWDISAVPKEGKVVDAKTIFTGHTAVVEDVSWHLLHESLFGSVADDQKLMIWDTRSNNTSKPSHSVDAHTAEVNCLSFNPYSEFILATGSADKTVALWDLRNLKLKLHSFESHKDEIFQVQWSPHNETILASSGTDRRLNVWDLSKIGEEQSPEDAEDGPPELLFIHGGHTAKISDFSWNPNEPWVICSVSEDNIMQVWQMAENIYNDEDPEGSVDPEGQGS

Broadly, the IC50 is the midpoint of a concentration-inhibition curve. In the case of `CC(=O)N[C@H]1CSCc2cccc(c2)CSC[C@@H](C(=O)N[C@@H](CC(N)=O)C(N)=O)NC(=O)[C@@H]2CCCN2C(=O)[C@H](CC(C)C)NC(=O)[C@H](Cc2ccc(O)cc2)NC(=O)[C@@H]2CCCN2C(=O)[C@H](Cc2c[nH]cn2)NC(=O)[C@H](CCCNC(=N)N)NC(=O)[C@H](C)NC(=O)[C@H](C)NC(=O)[C@H](Cc2c[nH]cn2)NC(=O)[C@H](Cc2c[nH]c3ccccc23)NC(=O)[C@@H]2CCCN2C1=O` [Peptide 18] (Ac-CPWHAARHPYLPCN-NH2; linker 1-13 via mXylylene), under setting [1], the IC50 was greater than 10 µM. Consider `CC(=O)N[C@H]1CSCc2cccc(c2)CSC[C@@H](C(=O)N[C@@H](C)C(N)=O)NC(=O)[C@@H]2CCCN2C(=O)[C@H](CCCCN)NC(=O)[C@H](Cc2ccc(O)cc2)NC(=O)[C@@H]2CCCN2C(=O)[C@H](CCCNC(=N)N)NC(=O)[C@H](CCCNC(=N)N)NC(=O)[C@H](C)NC(=O)[C@H](C)NC(=O)[C@H](CCCNC(=N)N)NC(=O)[C@H](CCCCN)NC(=O)[C@@H]2CCCN2C1=O` [Peptide 20] (Ac-CPKRAARRPYKPCA-NH2; linker 1-13 via mXylylene), for which the “FP activity in words” value is “IC50 values similar to those of 7 and 8”. Besides, the IC50 under setting [1] worked out at 0.0223 ± 3e-05 µM. As for `CC[C@H](C)[C@H](NC(=O)[C@@H]1CCCN1C(=O)[C@H](CC(C)C)NC(=O)[C@H](Cc1ccc(O)cc1)NC(=O)[C@@H]1CCCN1C(=O)[C@H](Cc1c[nH]cn1)NC(=O)[C@H](CCCNC(=N)N)NC(=O)[C@H](C)NC(=O)[C@H](C)NC(=O)[C@H](Cc1c[nH]cn1)NC(=O)[C@H](Cc1c[nH]c2ccccc12)NC(=O)[C@@H]1CCCN1C(=O)[C@H](CCCNC(=N)N)NC(C)=O)C(=O)N[C@@H](CC(N)=O)C(N)=O` [Peptide 15] (Ac-RPWHAARHPYLPIN-NH2), the IC50 under setting [1] is greater than 10 µM.

`CC(=O)N[C@H]1CSCc2cc(C)cc(c2)CSC[C@@H](C(=O)N[C@@H](C)C(N)=O)NC(=O)[C@@H]2CCCN2C(=O)[C@H](CCCCN)NC(=O)[C@H](Cc2ccc(O)cc2)NC(=O)[C@@H]2CCCN2C(=O)[C@H](CCCNC(=N)N)NC(=O)[C@H](CCCNC(=N)N)NC(=O)[C@H](C)NC(=O)[C@H](C)NC(=O)[C@H](CCCNC(=N)N)NC(=O)[C@H](CCCCN)NC(=O)[C@H]([C@@H](C)O)NC1=O` [Peptide 31] (Ac-CTKRAARRPYKPCA-NH2; linker 1-13 via TBMB (inferred)): the IC50 under setting [1] came out at 0.0404 ± 0.0015 µM. With `CC(=O)N[C@H]1CSCc2cc3cc(c2)CSC[C@@H](C(=O)N[C@@H](C)C(N)=O)NC(=O)[C@@H]2CCCN2C(=O)[C@H](CCCCN)NC(=O)[C@H](C)NC(=O)[C@@H]2CCCN2C(=O)[C@H](CCCNC(=N)N)NC(=O)[C@H](CCCNC(=N)N)NC(=O)[C@H](C)NC(=O)[C@H](CSC3)NC(=O)[C@H](CCCNC(=N)N)NC(=O)[C@H](CCCCN)NC(=O)[C@H]([C@@H](C)O)NC1=O` [Peptide 43] (Ac-CTKRCARRPAKPCA-NH2; linker 1-5-13 via TBMB), the 50% inhibitory concentration (IC50) under setting [2] worked out at 0.0383 ± 0.0019 µM. Still for that read-out and setting: for `CC(=O)N[C@@H](CCC(=O)O)C(=O)N[C@H](C(=O)N[C@@H](CCCCN)C(=O)N[C@@H](CCCNC(=N)N)C(=O)N[C@H]1CCC(=O)NCCCC[C@@H](C(=O)N[C@@H](C)C(N)=O)NC(=O)[C@@H]2CCCN2C(=O)[C@H](CCCCN)NC(=O)[C@H](Cc2ccc(O)cc2)NC(=O)[C@@H]2CCCN2C(=O)[C@H](CCCNC(=N)N)NC(=O)[C@H](CCCNC(=N)N)NC(=O)[C@H](C)NC1=O)[C@@H](C)O` [Peptide 5] (Ac-ETKREARRPYKPKA-NH2; lactam 5-13) the value was 0.126 ± 0.0323 µM. For `CC(=O)N[C@H]1CSCc2cc(Br)cc(c2)CSC[C@@H](C(=O)N[C@@H](C)C(N)=O)NC(=O)[C@@H]2CCCN2C(=O)[C@H](CCCCN)NC(=O)[C@H](Cc2ccc(O)cc2)NC(=O)[C@@H]2CCCN2C(=O)[C@H](CCCNC(=N)N)NC(=O)[C@H](CCCNC(=N)N)NC(=O)[C@H](C)NC(=O)[C@H](C)NC(=O)[C@H](CCCNC(=N)N)NC(=O)[C@H](CCCCN)NC(=O)[C@H]([C@@H](C)O)NC1=O` [Peptide 30] (Ac-CTKRAARRPYKPCA-NH2; linker 1-13 via X5 (inferred)), the IC50 under setting [1] is 0.031 ± 0.0037 µM. In the case of `CC(=O)N[C@H]1CSCc2cc3cc(c2)CSC[C@@H](C(=O)N[C@@H](C)C(N)=O)NC(=O)[C@@H]2CCCN2C(=O)[C@H](CCCCN)NC(=O)[C@H](Cc2ccc(O)cc2)NC(=O)[C@H](C)NC(=O)[C@H](CCCNC(=N)N)NC(=O)[C@H](CCCNC(=N)N)NC(=O)[C@H](C)NC(=O)[C@H](CSC3)NC(=O)[C@H](CCCNC(=N)N)NC(=O)[C@H](CCCCN)NC(=O)[C@H]([C@@H](C)O)NC1=O` [Peptide 42] (Ac-CTKRCARRAYKPCA-NH2; linker 1-5-13 via TBMB), the IC50 under setting [2] turned out to be 0.131 ± 0.0153 µM. In the case of `CC(=O)N[C@H]1CSCc2ccc(cc2)CSC[C@@H](C(=O)N[C@@H](C)C(N)=O)NC(=O)[C@@H]2CCCN2C(=O)[C@H](CCCCN)NC(=O)[C@H](Cc2ccc(O)cc2)NC(=O)[C@@H]2CCCN2C(=O)[C@H](CCCNC(=N)N)NC(=O)[C@H](CCCNC(=N)N)NC(=O)[C@H](C)NC(=O)[C@H](C)NC(=O)[C@H](CCCNC(=N)N)NC(=O)[C@H](CCCCN)NC(=O)[C@@H]2CCCN2C1=O` [Peptide 21] (Ac-CPKRAARRPYKPCA-NH2; linker 1-13 via pXylylene), the “FP activity in words” value is “IC50 values similar to those of 7 and 8”. Besides, the IC50 under setting [1] is 0.025 ± 0.0073 µM. With `CC(=O)N[C@H]1CSCc2ccc(cc2)CSC[C@@H](C(=O)N[C@@H](C)C(N)=O)NC(=O)[C@@H]2CCCN2C(=O)[C@H](CCCCN)NC(=O)[C@H](Cc2ccc(O)cc2)NC(=O)[C@@H]2CCCN2C(=O)[C@H](CCCNC(=N)N)NC(=O)[C@H](CCCNC(=N)N)NC(=O)[C@H](C)NC(=O)[C@H](C)NC(=O)[C@H](Cc2c[nH]cn2)NC(=O)[C@H](CCCCN)NC(=O)[C@H]([C@@H](C)O)NC1=O` [Peptide 25] (Ac-CTKHAARRPYKPCA-NH2; linker 1-13 via pXylylene), the IC50 under setting [1] is 0.303 ± 0.0859 µM. Consider `CC(=O)N[C@H]1CSCc2cc(C#N)cc(c2)CSC[C@@H](C(=O)N[C@@H](C)C(N)=O)NC(=O)[C@@H]2CCCN2C(=O)[C@H](CCCCN)NC(=O)[C@H](Cc2ccc(O)cc2)NC(=O)[C@@H]2CCCN2C(=O)[C@H](CCCNC(=N)N)NC(=O)[C@H](CCCNC(=N)N)NC(=O)[C@H](C)NC(=O)[C@H](C)NC(=O)[C@H](CCCNC(=N)N)NC(=O)[C@H](CCCCN)NC(=O)[C@H]([C@@H](C)O)NC1=O` [Peptide 29] (Ac-CTKRAARRPYKPCA-NH2; linker 1-13 via X4 (inferred)), for which the IC50 under setting [1] came to 0.0438 ± 0.0047 µM. `CC(=O)N[C@H]1CSCc2cc3cc(c2)CSC[C@@H](C(=O)N[C@@H](C)C(N)=O)NC(=O)[C@@H]2CCCN2C(=O)[C@H](C)NC(=O)[C@H](Cc2ccc(O)cc2)NC(=O)[C@@H]2CCCN2C(=O)[C@H](CCCNC(=N)N)NC(=O)[C@H](CCCNC(=N)N)NC(=O)[C@H](C)NC(=O)[C@H](CSC3)NC(=O)[C@H](CCCNC(=N)N)NC(=O)[C@H](CCCCN)NC(=O)[C@H]([C@@H](C)O)NC1=O` [Peptide 44] (Ac-CTKRCARRPYAPCA-NH2; linker 1-5-13 via TBMB): the half-maximal inhibitory concentration (IC50) under setting [2] is 0.0198 ± 0.0036 µM. Consider `CC(=O)N[C@@H](CCC(=O)O)C(=O)N[C@H](C(=O)N[C@@H](CCCCN)C(=O)N[C@@H](CCCNC(=N)N)C(=O)N[C@H]1CSCc2cccc(n2)CSC[C@@H](C(=O)N[C@@H](C)C(N)=O)NC(=O)[C@@H]2CCCN2C(=O)[C@H](CCCCN)NC(=O)[C@H](Cc2ccc(O)cc2)NC(=O)[C@@H]2CCCN2C(=O)[C@H](CCCNC(=N)N)NC(=O)[C@H](CCCNC(=N)N)NC(=O)[C@H](C)NC1=O)[C@@H](C)O` [Peptide 13] (Ac-ETKRCARRPYKPCA-NH2; linker 5-13 via Pyridine(2,6-diCH2)), for which the half-maximal inhibitory concentration (IC50) under setting [2] is 0.147 ± 0.0107 µM.
